Values quoted from earlier work, collected in patent US20200132604A1, “METHODS OF DETERMINING PROTEIN STRUCTURE USING TWO-PHOTON FLUORESCENCE MEASUREMENTS” (Biodesy, Inc., priority 2017, published 2020).

Columns and labels:
[1] = molecular target: monomeric forms of avidin or streptavidin; conditions: read-out: biotin-binding affinity
human IgG-Fc = conditions: Sugita, et al. (2013)

| Compound | Kd [1] | affinity (human IgG-Fc) |
| --- | --- | --- |
| O=C(O)CCCC[C@@H]1SC[C@@H]2NC(=O)N[C@@H]21 [biotin] | ~10 nM |  |
| NARKFYKG |  | 6.5e+06 M⁻¹ |
| NKFRGKYK |  | 8.9e+06 M⁻¹ |
